In patent publication US20210029993A1, “SPATIAL INHIBITORS, DETERRENTS AND REPELLENTS FOR MOSQUITOES AND MIDGES” (BEDOUKIAN RESEARCH, INC., priority 2005, published 2021):

Legend:
Format in all cases: in vivo
[1] = tested on: female mosquitoes (Aedes aegypti); test: Mosquitoes feeding test (Plexiglas module, treated membrane over dyed sucrose/ATP solution); settings: for Feeding Relative To Control: control = 1.00, lower = more repellent; for contact mosquito repellent activity (feeding tests, FIGS. 1 and 3), in words: feeding relative to control
Method: (§1) The test was conducted at 0900-2100 hours in a walk-in incubator (26° C., 63-80% RH) illuminated by fluorescent lights. Mosquitoes were tested in a two-piece Plexiglas module designed to assess their response to feeding deterrents. The bottom piece of the module was 40×7×4-cm hollow platform supporting six circular wells (diameter=3.8 cm, depth=6 mm). Water (40° C.) flowed through the central cavity of the platform at a rate of 215 ml/min. The top piece of the module consisted of six 4.5×4.0×5.0 cm chambers, the floors of which were fitted with a sliding door positioned over a circular opening 3.5 cm in diameter. Mosquitoes were introduced through an aperture 1 cm in diameter on the front wall of the chambers. For each test, five female mosquitoes (Aedes aegypti) were aspirated into each of five chambers of the top module piece and the apertures were plugged with corks wrapped in plastic film. The wells on the bottom piece of the module were filled with 7 ml of 10% sucrose solution containing ATP (2.9 mg/ml). To each well, 75 μl of green dye (McCormick Food, Hunt Valley, Md.) were added so that those mosquitoes imbibing the sugar solution could be identified when crushed at the end of the tests. Each membrane received 50 ul of acetone or experimental compound solution, applied to 9.6 cm^2 circular area on 0.1 mm-thick membranes made of nylon mesh in a silicone matrix. The membranes were then placed over each well in contact with the sugar solution.
(§2) The circular openings on the floor of each chamber of the top piece of the module were aligned with each membrane-covered well of the bottom piece. The sliding floors of the chambers were then opened allowing mosquitoes access to the membranes. The number of mosquitoes landing on the membranes, and those flying within the apparatus, were recorded each minute for five minutes. After five minutes, any mosquitoes remaining on the membranes were removed with a metal wire, and the door of the floor of each chamber was closed. The top piece of the module was then placed into a freezer for 20 minutes. In the test designed to assess feeding, mosquitoes were removed from the frozen module, crushed on white paper towels, and examined for the presence of green dye to indicate that feeding had occurred. The proportions of mosquitoes feeding per trial were analyzed using a standard generalized linear model with a logit link. Landing and flying scores are repeated measures; five reading were obtained for groups of five mosquitoes. Thus, to maintain independence among the data, the five readings were summed, and then the sums divided by 25 (the maximum score in each category) to create proportions of mosquitoes landing and flying. The proportions were then transferred using the standard variance stabilizing transformation for proportions (sin^−1 √y, where y is the proportion), and analyzed using ANOVA (Analysis of Variables)
In Table 1, weight percent (wt %) refers to the weight of the deterring/repelling/inhibiting compound, or combination of compounds, in the composition used in the tests. […] The weight ratio of the compounds in the combination of compounds is given in parentheses in the “Compound(s)” column of Table 1.

[2] = tested on: female mosquitoes (Aedes aegypti); test: Mosquitoes flying test (Plexiglas module, mosquitoes flying within the apparatus); settings: for Flying Relative To Control: control = 1, higher = more inhibitor activity; for spatial inhibitor activity for mosquitoes (flying tests, FIGS. 2 and 4), in words: flying relative to control
Method: as §1, §2
In Table 2, weight percent (wt %) refers to the weight of the deterring/repelling/inhibiting compound, or combination of compounds, in the composition used in the tests. […] The weight ratio of the compounds in the combination of compounds is given in parentheses in the “Compound(s)” column of Table 2.

[3] = tested on: female biting midges (Culicoides impunctatus); test: Biting midges feeding test (Plexiglas module, treated membrane); settings: control = 1.00, lower = more repellent
Method: The following tests are employed to illustrate the efficacy of the compounds of this disclosure to effectively act as biting midge deterrents, repellents or as spatial inhibitors for biting midges. […] Biting midges are tested in a two-piece Plexiglas module designed to assess their response to feeding deterrents. […] Water (40° C.) flows through the central cavity of the platform at a rate of 215 ml/min. The top piece of the module consists of six 4.5×4.0×5.0 cm chambers, the floors of which are fitted with a sliding door positioned over a circular opening 3.5 cm in diameter. Biting midges are introduced through an aperture 1 cm in diameter on the front wall of the chambers. For each test, five female biting midges (Culicoides impunctatus) are aspirated into each of five chambers of the top module piece and the apertures are plugged with corks wrapped in plastic film. […] To each well, 77.5 μl of green dye (McCormick Food, Hunt Valley, Md.) are added so that those biting midges imbibing the sugar solution can be identified when crushed at the end of the tests. Each membrane receives 50 μl of acetone or experimental compound solution, applied to 9.6 cm^2 circular area on 0.1 mm-thick membranes made of nylon mesh in a silicone matrix. The membranes are then placed over each well in contact with the sugar solution. The circular openings on the floor of each chamber of the top piece of the module are aligned with each membrane-covered well of the bottom piece. The sliding floors of the chambers are then opened allowing biting midges access to the membranes. The number of biting midges landing on the membranes, and those flying within the apparatus, are recorded each minute for five minutes. After five minutes, any biting midges remaining on the membranes are removed with a metal wire, and the door of the floor of each chamber is closed. The top piece of the module is then placed into a freezer for 20 minutes. In the test designed to assess feeding, biting midges are removed from the frozen module, crushed on white paper towels, and examined for the presence of green dye to indicate that feeding had occurred. The proportions of biting midges feeding per trial are analyzed using a standard generalized linear model with a logit link. Landing and flying scores are repeated measures; five readings are obtained for groups of five biting midges. Thus, to maintain independence among the data, the five readings are summed, and then the sums divided by 25 (the maximum score in each category) to create proportions of biting midges landing and flying. The proportions are then transferred using the standard variance stabilizing transformation for proportions (sin^−1 √y, where y is the proportion), and analyzed using ANOVA (Analysis of Variables). In Table 4, weight percent (wt %) refers to the weight of the deterring/repelling/inhibiting compound, or combination of compounds, in the composition used in the tests. […] The weight ratio of the compounds in the combination of compounds is given in parentheses in the “Compound(s)” column of Table 4.

[4] = 80 wt % compound(s) in composition
[5] = 85 wt % compound(s) in composition
[6] = 77.5 wt % compound(s) in composition
[7] = 92.5 wt % compound(s) in composition
[8] = 82.5 wt % compound(s) in composition
[9] = 87.5 wt % compound(s) in composition
[10] = 95 wt % compound(s) in composition

For `Cc1ccc(C(C)(C)O)cc1`, the “Feeding Relative To Control” value [1, 4] was 0.72, the “contact mosquito repellent activity (feeding tests, FIGS. 1 and 3), in words” value (“contact mosquito repellent activity” for short) [1] was “especially effective as contact mosquito repellents” and the “Flying Relative To Control” value [2, 4] was 1.0. For the same compound, the “spatial inhibitor activity for mosquitoes (flying tests, FIGS. 2 and 4), in words” value (“spatial inhibitor activity” below) [2] was “particularly effective as spatial inhibitors for mosquitoes” and the “Feeding Relative To Control” value [3, 4] was 0.73.
In the case of `C=C(C)[C@@H]1CC=C(C)[C@H](O)C1` (relative stereo) [cis-Carveol], the “Feeding Relative To Control” value [1, 5] is reported as 0.66, the “Flying Relative To Control” value [2, 5] is reported as 1.35 and the “Feeding Relative To Control” value [3, 5] is reported as 0.67.
`C=C(C)[C@@H]1CC=C(C)[C@@H](O)C1` (relative stereo) [trans-Carveol] was tested, and the “Feeding Relative To Control” value [1, 6] was 0.64, the “Flying Relative To Control” value [2, 6] was 1.55 and the “Feeding Relative To Control” value [3, 6] was 0.63.
With `C=C(C)C1CCC2(C)OC2C1` (single isomer, unassigned; (-)) [(−) Limonene oxide] the “Feeding Relative To Control” value [1, 7] was 0.76, the “Flying Relative To Control” value [2, 7] was 1.1 and the “Feeding Relative To Control” value [3, 7] was 0.75.
In the case of `CC(C)=CCCC(C)=CC=O` [Citral], the “Feeding Relative To Control” value [1, 8] is reported as 0.60, the “contact mosquito repellent activity” value [1] is reported as “especially effective as contact mosquito repellents” and the “Flying Relative To Control” value [2, 8] is reported as 2.0. For the same compound, the “spatial inhibitor activity” value [2] was “particularly effective as spatial inhibitors for mosquitoes” and the “Feeding Relative To Control” value [3, 8] was 0.60.
`CC(C)=CCCC(C)CC=O` (centres unmarked) [Citronellal] was tested, and the “Feeding Relative To Control” value [1, 7] was 0.62, the “contact mosquito repellent activity” value [1] was “especially effective as contact mosquito repellents” and the “Flying Relative To Control” value [2, 7] was 1.9. The “spatial inhibitor activity” value [2] was “particularly effective as spatial inhibitors for mosquitoes” and the “Feeding Relative To Control” value [3, 7] was 0.64.
With `CC(C)=CCCC(C)CCO` (centres unmarked) [Citronellol] the “Feeding Relative To Control” value [1, 9] was 0.62, the “Flying Relative To Control” value [2, 9] was 1.55 and the “spatial inhibitor activity” value [2] was “particularly effective as spatial inhibitors for mosquitoes”. The “Feeding Relative To Control” value [3, 9] was 0.64.
In the case of `CC(=O)OCCC(C)CCC=C(C)C` (centres unmarked) [Citronellyl acetate], the “Feeding Relative To Control” value [1, 4] is reported as 0.65, the “Flying Relative To Control” value [2, 4] is reported as 1.5 and the “spatial inhibitor activity” value [2] is reported as “particularly effective as spatial inhibitors for mosquitoes”. The “Feeding Relative To Control” value [3, 4] was 0.67.
With `CC(=O)OC/C=C(\C)CCC=C(C)C` [Geranyl acetate] the “Feeding Relative To Control” value [1, 5] was 0.68, the “contact mosquito repellent activity” value [1] was “especially effective as contact mosquito repellents” and the “Flying Relative To Control” value [2, 5] was 1.75. The “spatial inhibitor activity” value [2] was “particularly effective as spatial inhibitors for mosquitoes” and the “Feeding Relative To Control” value [3, 5] was 0.64.
`C=CC(C)(CCC=C(C)C)OC(C)=O` (centres unmarked) [Linaloyl acetate] was tested, and the “Feeding Relative To Control” value [1, 10] was 0.74, the “contact mosquito repellent activity” value [1] was “especially effective as contact mosquito repellents” and the “Flying Relative To Control” value [2, 10] was 1.3. For the same compound, the “spatial inhibitor activity” value [2] was “particularly effective as spatial inhibitors for mosquitoes” and the “Feeding Relative To Control” value [3, 10] was 0.72.
With `CC(=O)OC/C=C(/C)CCC=C(C)C` [Neryl acetate] the “Feeding Relative To Control” value [1, 6] was 0.76, the “contact mosquito repellent activity” value [1] was “especially effective as contact mosquito repellents” and the “Flying Relative To Control” value [2, 6] was 2.0. For the same compound, the “spatial inhibitor activity” value [2] was “particularly effective as spatial inhibitors for mosquitoes” and the “Feeding Relative To Control” value [3, 6] was 0.72.
